# Assay results reported in ChEMBL document CHEMBL1201862, “PubChem BioAssay data set” (2004).
# Activity calls are given as the source filed them.
# Legend:
# [1] = THP-1 cell cytotoxicity, dose response, cytotoxicity control for Vif-APOBEC3G degradation inhibitor project, THP-1 cells (AID 1117359); format: functional; conditions: Human immunodeficiency virus 1, THP-1
# Cytochrome P450 2D6 = Cytochrome P450 2D6 (Homo sapiens, UniProt P10635);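 also: CYP2D6 member of a cytochrome P450 panel assay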
# Cytochrome P450 3A4 [2] = target: T1, Cytochrome P450 3A4 (Homo sapiens, UniProt P08684); conditions: Potency
# HeLa = assay: HeLa cell cytotoxicity, dose response, cytotoxicity control, 24 h, cherry-picked samples (AID 504726); format: functional, cell-based; conditions: Homo sapiens;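 also: potency for cytotoxicity as loss of luminescence signal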
# fMet-Leu-Phe receptor = target: T2, fMet-Leu-Phe receptor (Homo sapiens, UniProt P21462); assay: FPR ligands, dose response (AID 519); format: functional
# T2 sequence (P21462 whole entry): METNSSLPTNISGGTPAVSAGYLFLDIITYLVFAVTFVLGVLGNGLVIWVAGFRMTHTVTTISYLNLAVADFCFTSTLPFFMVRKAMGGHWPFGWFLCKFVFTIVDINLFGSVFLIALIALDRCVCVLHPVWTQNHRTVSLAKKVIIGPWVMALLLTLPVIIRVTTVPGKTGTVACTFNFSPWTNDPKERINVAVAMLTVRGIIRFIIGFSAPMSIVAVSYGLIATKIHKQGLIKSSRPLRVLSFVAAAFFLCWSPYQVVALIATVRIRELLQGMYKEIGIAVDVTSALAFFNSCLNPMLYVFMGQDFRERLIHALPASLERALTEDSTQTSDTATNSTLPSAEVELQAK
# [3] = target: Luciferin 4-monooxygenase (Photinus pyralis, UniProt P08659); assay: firefly luciferase enzyme inhibitors, dose response, biochemical, luminescence (AID 1891)
# [4] = Luminescence Cell-Based Dose Confirmation HTS to Identify Inhibitors of Platelet Dense Granule Release. [Related pubchem assays: 1663 (Primary HTS), 1678 (Summary of Project)]; format: functional
# [5] = inhibitors of SNCA 5'UTR-driven reporter translation, confirmation, H4 neuroglioma cells, luminescence (AID 1988); format: functional, cell-based
# [6] = HEK293 cell cytotoxicity, dose response, cytotoxicity control, plate reader, cherry-picked samples (AID 743446); format: functional, cell-based
# [7] = LGR2 antagonists, dose response, cell-based, HEK293, CRE-luciferase reporter, cherry pick, set 2 (AID 743343); format: functional;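 also: transfected cells were stimulated with diluted bursicon conditioned medium after compound addition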
# [8] = Luminescence Cell-Based Dose Response HTS to Identify Inhibitors of 5'UTR Stem-Loop Driven Prion Protein mRNA Translation in H4 Neuroglioblastoma Cells. [Related pubchem assays: 1827 (Project Summary), 1813 (Primary HTS)]; format: functional
# [9] = A549 cell cytotoxicity, dose response, cytotoxicity control, plate reader, cherry-pick, antagonist series (AID 743412); format: functional, cell-based
# [10] = MC4R antagonists, dose response, counter-screen for LGR2 antagonist project, cell-based, plate reader, cherry pick (AID 743444); format: functional;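 also: transfected HEK 293 cells stimulated with alpha-MSH peptide; potency of inhibitors of the alpha-MSH evoked signal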
# [11] = target: T3, Heat shock factor protein 1 (Mus musculus, UniProt P38532); assay: inhibition of MG132-induced HSE-luciferase signal, confirmation, cell-based, NIH3T3, luminescence, dose retest (AID 2382); format: functional;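 also: NIH3T3 fibroblasts with HSF1-driven luciferase reporter stressed by proteasome inhibitor MG132; luminescence from HSF1-driven luciferase expression after 8 hours of MG132 stress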
# T3 sequence (P38532 whole entry): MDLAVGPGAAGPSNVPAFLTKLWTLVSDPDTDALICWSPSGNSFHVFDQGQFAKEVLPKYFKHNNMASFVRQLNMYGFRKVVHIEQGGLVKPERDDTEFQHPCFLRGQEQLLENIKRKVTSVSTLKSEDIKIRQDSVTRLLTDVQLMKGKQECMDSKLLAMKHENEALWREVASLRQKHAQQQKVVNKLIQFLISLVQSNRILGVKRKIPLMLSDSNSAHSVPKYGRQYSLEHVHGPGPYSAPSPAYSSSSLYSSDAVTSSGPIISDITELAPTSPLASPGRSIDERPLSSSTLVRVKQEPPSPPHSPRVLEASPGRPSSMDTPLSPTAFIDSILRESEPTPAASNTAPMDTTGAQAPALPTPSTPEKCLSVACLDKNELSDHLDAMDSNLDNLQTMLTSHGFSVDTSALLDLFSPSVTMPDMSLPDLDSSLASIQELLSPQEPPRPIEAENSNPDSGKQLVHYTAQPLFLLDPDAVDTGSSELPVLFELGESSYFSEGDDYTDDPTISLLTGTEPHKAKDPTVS
# [12] = inhibitors of firefly luciferase expression or activity, dose response, H4 neuroglioma cells, luminescence (AID 1990); format: functional, cell-based
# Streptococcus = assay: Group A Streptococcus viability loss, dose response, counter-screen for streptokinase expression inhibitor project, luminescence, BacTiterGlo (AID 1915); format: functional, organism-based;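 also: potency for reduction of bacterial viability or growth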
# Streptokinase A = target: T4, Streptokinase A (Streptococcus pyogenes serotype M1, UniProt P10520); assay: S. pyogenes streptokinase expression inhibitors, potency, dose response, plasminogen activation absorbance, OD405 (AID 1914); format: functional, Streptococcus pyogenes M1 GAS;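 also: secreted streptokinase activity via plasminogen activation per viability signal from cell pellet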
# T4 sequence (P10520 whole entry): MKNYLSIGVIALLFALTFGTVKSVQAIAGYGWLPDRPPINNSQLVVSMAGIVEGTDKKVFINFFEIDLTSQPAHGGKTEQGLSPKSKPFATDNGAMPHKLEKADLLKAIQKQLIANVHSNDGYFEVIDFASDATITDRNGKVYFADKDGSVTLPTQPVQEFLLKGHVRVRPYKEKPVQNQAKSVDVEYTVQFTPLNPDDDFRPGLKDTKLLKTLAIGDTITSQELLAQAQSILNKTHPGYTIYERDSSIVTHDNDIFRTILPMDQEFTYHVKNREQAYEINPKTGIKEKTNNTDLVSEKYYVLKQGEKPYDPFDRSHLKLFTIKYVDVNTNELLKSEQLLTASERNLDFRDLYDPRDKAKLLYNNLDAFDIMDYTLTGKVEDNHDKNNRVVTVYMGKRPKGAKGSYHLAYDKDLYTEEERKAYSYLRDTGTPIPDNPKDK
# [13] = system: Streptococcus sp. 'group A'; assay: growth inhibition of control SK(-) GAS strain, dose response, counter-screen for streptokinase expression inhibitor project, luminescence, kanamycin, BacTiterGlo, confirmation (AID 1900); format: functional, organism-based
# [14] = target: T5, Short transient receptor potential channel 4 (Mus musculus, UniProt Q9QUQ5); assay: mouse TRPC4 channel inhibitors, dose response, cell-based, HEK293 TRPC4/mu-opioid, Fluo-4 calcium (AID 434942); format: functional;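 also: potency of inhibitors blocking the TRPC4 calcium response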
# T5 sequence (Q9QUQ5 whole entry): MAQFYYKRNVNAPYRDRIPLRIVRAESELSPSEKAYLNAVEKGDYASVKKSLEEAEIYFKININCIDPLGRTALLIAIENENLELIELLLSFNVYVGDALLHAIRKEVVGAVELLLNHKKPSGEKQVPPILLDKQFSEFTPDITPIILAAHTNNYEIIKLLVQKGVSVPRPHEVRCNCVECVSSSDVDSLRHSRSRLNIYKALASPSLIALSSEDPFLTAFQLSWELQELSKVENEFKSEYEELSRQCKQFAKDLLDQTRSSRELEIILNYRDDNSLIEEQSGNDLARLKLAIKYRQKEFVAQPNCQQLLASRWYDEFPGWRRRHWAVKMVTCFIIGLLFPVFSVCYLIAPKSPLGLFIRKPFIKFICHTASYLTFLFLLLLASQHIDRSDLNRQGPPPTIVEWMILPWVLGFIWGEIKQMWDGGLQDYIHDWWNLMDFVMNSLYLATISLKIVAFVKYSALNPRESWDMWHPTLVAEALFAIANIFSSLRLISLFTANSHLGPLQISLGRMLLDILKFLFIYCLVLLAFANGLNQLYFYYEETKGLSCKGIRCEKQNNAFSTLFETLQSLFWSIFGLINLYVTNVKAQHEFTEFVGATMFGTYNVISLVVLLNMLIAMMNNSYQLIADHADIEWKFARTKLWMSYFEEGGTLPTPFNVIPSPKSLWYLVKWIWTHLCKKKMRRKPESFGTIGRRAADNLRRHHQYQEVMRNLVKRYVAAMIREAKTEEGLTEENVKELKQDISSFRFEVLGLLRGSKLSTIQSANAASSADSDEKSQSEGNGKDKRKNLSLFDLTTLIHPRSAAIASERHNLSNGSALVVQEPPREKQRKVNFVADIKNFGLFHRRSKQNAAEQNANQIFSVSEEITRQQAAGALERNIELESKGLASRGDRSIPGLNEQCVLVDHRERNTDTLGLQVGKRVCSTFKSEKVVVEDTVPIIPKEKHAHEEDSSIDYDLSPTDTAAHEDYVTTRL
# X-box-binding protein 1 = target: T6, X-box-binding protein 1 (Homo sapiens, UniProt P17861); format: functional, Cricetulus griseus;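 also: confirmatory dose-response counter-screen serving a CHOP assay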
# T6 sequence (P17861 whole entry): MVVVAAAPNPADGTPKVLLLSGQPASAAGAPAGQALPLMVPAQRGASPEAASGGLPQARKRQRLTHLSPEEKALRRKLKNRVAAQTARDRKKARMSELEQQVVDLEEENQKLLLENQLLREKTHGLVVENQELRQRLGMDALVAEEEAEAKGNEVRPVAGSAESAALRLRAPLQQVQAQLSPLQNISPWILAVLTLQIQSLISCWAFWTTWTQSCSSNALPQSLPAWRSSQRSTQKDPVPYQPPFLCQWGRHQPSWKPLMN
# Cytochrome P450 3A4 [15] = target: T1, Cytochrome P450 3A4
# [16] = THP-1 cell cytotoxicity, dose response, cytotoxicity control for non-replicating M. tuberculosis project (AID 489025); format: functional
# [17] = HepG2 cell cytotoxicity, dose response, cytotoxicity control, plate reader, cherry-pick, antagonist series (AID 743416); format: functional, cell-based
# cells = format: functional
# [18] = A cytotoxicity screen of small molecule inhibitors of the PhoP region in Salmonella typhi identified in the primary screen. [Related pubchem assays: 1850, 1864, 1985 ]; format: functional
# [19] = target: DNA dC->dU-editing enzyme APOBEC-3A (Homo sapiens, UniProt P31941); assay: APOBEC3A DNA deaminase inhibitors, dose response, biochemical (AID 504722); format: functional
# [20] = target: DNA dC->dU-editing enzyme APOBEC-3G (Homo sapiens, UniProt Q9HC16); assay: Dose Response confirmation of small molecule APOBEC3G DNA Deaminase Inhibitors via a fluorescence-based single-stranded DNA deaminase assay. [Related pubchem assays (depositor defined):AID493012, AID493028]; format: functional
# [21] = target: FAD-linked sulfhydryl oxidase ALR (Homo sapiens, UniProt P55789); assay: inhibitors of human ALR sulfhydryl oxidase, dose response, biochemical, H2O2 detection, luminescence, cherry-pick (AID 493248)
# Large T antigen = Large T antigen (Simian virus 40, UniProt P03070); format: functional, Betapolyomavirus macacae;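 also: Confirmatory-stage PubChem screen for compounds that inhibit SV40 T antigen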
# Large T antigen, sequence (P03070 whole entry): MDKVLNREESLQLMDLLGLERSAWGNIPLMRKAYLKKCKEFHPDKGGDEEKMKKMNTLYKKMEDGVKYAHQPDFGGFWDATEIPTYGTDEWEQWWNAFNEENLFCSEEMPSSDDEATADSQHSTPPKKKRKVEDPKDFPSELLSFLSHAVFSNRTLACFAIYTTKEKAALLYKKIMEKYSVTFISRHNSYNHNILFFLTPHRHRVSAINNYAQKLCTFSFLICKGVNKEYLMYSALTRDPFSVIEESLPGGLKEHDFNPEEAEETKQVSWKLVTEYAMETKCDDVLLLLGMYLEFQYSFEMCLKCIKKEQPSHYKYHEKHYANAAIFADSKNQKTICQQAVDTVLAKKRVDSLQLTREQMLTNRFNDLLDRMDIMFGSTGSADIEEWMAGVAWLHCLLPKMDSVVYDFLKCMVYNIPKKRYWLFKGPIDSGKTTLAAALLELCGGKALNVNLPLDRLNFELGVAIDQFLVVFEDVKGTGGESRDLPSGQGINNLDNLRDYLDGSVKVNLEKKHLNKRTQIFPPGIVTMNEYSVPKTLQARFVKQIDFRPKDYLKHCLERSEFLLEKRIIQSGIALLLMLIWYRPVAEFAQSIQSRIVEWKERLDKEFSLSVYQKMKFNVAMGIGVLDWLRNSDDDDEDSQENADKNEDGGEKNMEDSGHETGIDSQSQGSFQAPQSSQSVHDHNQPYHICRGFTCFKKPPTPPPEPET
# T1 sequence (P08684 whole entry): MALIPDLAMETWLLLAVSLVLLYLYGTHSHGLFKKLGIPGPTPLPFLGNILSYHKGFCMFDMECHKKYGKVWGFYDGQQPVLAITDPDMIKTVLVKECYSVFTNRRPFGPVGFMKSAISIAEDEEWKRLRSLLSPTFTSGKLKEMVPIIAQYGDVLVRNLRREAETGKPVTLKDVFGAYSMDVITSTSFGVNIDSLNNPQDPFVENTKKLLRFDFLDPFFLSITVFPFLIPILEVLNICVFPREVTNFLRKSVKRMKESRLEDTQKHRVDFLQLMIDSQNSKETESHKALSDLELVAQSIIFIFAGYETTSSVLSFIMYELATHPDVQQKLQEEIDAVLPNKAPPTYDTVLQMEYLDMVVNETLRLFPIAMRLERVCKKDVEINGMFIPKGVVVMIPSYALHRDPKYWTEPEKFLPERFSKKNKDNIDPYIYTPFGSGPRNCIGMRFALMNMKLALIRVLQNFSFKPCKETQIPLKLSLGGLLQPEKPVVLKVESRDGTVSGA
# DNA dC->dU-editing enzyme APOBEC-3G, sequence (Q9HC16 whole entry): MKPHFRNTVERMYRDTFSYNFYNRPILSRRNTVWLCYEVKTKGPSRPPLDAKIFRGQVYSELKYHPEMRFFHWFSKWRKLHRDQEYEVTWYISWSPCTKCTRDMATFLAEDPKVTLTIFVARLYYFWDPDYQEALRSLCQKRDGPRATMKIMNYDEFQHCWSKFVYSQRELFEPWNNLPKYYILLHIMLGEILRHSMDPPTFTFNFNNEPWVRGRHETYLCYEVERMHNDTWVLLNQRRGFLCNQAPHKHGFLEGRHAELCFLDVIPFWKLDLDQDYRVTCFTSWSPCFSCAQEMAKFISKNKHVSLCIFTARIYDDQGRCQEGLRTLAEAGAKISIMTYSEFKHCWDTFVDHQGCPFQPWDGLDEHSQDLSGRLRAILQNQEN
# DNA dC->dU-editing enzyme APOBEC-3A, sequence (P31941 whole entry): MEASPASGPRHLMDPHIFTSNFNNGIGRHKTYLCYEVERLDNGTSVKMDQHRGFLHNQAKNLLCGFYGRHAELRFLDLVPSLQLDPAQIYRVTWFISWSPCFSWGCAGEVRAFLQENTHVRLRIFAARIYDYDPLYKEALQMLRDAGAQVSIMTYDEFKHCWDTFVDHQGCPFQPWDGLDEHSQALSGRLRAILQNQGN
# FAD-linked sulfhydryl oxidase ALR, sequence (P55789 whole entry): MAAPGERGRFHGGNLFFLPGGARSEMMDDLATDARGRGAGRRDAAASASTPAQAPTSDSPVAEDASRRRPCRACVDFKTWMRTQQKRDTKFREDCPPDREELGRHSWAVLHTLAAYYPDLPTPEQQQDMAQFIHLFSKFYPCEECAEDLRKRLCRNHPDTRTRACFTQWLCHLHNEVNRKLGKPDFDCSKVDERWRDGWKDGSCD
# Luciferin 4-monooxygenase, sequence (P08659 whole entry): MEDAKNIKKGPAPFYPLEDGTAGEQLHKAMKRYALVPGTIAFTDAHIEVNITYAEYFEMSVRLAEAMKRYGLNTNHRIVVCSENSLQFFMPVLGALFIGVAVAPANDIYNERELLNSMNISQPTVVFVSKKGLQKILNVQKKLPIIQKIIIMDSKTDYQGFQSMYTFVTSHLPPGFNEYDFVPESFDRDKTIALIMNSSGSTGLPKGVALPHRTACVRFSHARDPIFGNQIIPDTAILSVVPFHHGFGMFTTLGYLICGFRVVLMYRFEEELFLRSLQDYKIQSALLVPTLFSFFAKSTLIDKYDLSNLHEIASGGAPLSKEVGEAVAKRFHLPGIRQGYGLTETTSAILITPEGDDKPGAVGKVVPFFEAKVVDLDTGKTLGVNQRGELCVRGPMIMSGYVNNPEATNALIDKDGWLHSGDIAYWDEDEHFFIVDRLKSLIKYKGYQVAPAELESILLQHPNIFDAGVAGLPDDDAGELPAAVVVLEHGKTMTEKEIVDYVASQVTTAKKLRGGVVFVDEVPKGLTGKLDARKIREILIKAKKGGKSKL
# Cytochrome P450 2D6, sequence (P10635 whole entry): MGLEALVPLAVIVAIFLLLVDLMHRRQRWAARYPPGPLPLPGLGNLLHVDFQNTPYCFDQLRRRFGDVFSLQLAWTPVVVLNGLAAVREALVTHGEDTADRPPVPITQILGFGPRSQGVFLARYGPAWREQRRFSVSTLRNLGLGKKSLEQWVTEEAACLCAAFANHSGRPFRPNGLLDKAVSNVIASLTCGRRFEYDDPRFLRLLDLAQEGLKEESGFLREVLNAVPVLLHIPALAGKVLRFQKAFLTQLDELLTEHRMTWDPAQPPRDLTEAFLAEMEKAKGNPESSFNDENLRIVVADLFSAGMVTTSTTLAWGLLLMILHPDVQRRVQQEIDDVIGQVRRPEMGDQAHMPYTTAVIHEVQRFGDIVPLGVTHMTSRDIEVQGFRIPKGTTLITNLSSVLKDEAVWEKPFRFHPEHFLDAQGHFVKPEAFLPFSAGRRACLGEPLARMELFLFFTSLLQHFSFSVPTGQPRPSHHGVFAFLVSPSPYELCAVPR
structure (smiles),measurement,setting,value
Oc1ccc(C2Nc3cccc4cccc(c34)N2)c(O)c1,CC50,[1],> 40 µM (active)
same,AC50,Cytochrome P450 2D6,25.1 µM (inconclusive)
COCCNC(=O)[C@H](C)/C=C/C(NC(=O)OCc1ccccc1)c1ccc(C(=O)OC)cc1 (stereo not given in full),AC50,Cytochrome P450 3A4 [2],7.94 µM (inconclusive)
CN(C)c1ccc(/C=C2\CCCN=C2c2cccnc2)cc1,AC50,Cytochrome P450 3A4 [2],10 µM (inconclusive)
COc1cccc(NC(=O)CN(C)CC(=O)NCc2ccco2)c1,AC50,HeLa,115 µM (active)
COC(=O)[C@@H]1C[C@@]2(O)[C@H](O)[C@H](O)[C@H](O)C[C@H]2N1Cc1c(F)cccc1Cl,AC50,Cytochrome P450 3A4 [2],25.1 µM (inconclusive)
CCOC(=O)C(C)(C)N(Cc1ccccc1C)S(=O)(=O)c1ccc(Cl)c([N+](=O)[O-])c1,AC50,HeLa,29.8 µM (active)
COc1ccc(C2C(C(=O)c3ccco3)=C(O)C(=O)N2Cc2cccnc2)cc1OC (stereo not given),Ki,fMet-Leu-Phe receptor,> 66.7 µM (inactive)
O=C(Nc1ccc(-c2nc3cccnc3s2)cc1)C1CCCO1 (stereo not given),EC50,[3],6.36 µM (active)
same,EC50,[4],4.58 µM (active)
same,EC50,[5],4.56 µM (active)
same,AC50,[6],38.4 µM (active)
same,AC50,[7],1.98 µM (active)
same,EC50,[8],6.12 µM (active)
same,AC50,[9],> 52 µM (inactive)
same,AC50,[10],2.45 µM (active)
same,EC50,[11],11.3 µM (active)
same,EC50,[12],6.46 µM (inconclusive)
CCN(c1ccc(C)cc1C)S(=O)(=O)c1nnc(NC(=O)c2ccco2)s1,EC50,Streptococcus,43.1 µM (active)
same,EC50,Streptokinase A,17.5 µM (active)
same,AC50,HeLa,60.2 µM (active)
same,EC50,[13],2.15 µM (active)
C=CCN(CC(O)c1cccc([N+](=O)[O-])c1)C(C)CCc1ccccc1 (stereo not given),EC50,[14],3.35 µM (active)
same,EC50,[11],> 195 µM (not active)
O=C(Nc1cc(Cl)ccc1O)c1cc2n(n1)C(C(F)(F)F)CC(c1ccc3c(c1)OCO3)N2 (stereo not given),Absolute IC50 (XBP1),X-box-binding protein 1,10 µM
CCOc1cc(C2C(C(=O)c3ccc(C)o3)=C(O)C(=O)N2CCc2ccccc2)ccc1O (stereo not given),Ki,fMet-Leu-Phe receptor,30.4 µM (inactive)
CCCCNCC1C(Oc2ccc(Cl)cc2)C(=O)N1c1ccccc1C (stereo not given),EC50,[14],4.22 µM (active)
Cc1nc2c(C#N)c(C)nn2c(O)c1Cc1ccccc1,AC50,Cytochrome P450 3A4 [15],25.1 µM (inconclusive)
same,Ki,fMet-Leu-Phe receptor,50 µM (inactive)
Cc1ccc(C(=O)n2c(N)nc3ccccc32)cc1,EC50,Streptococcus,115 µM (active)
same,CC50,[16],> 40 µM (active)
same,EC50,Streptokinase A,> 150 µM (not active)
same,AC50,[17],> 52 µM (inactive)
same,AC50,[6],> 52 µM (inactive)
same,AC50,[7],1.44 µM (active)
same,AC50,[9],24.9 µM (active)
same,AC50,[10],1.43 µM (active)
same,IC50,cells,6.64 µM (active)
same,EC50,[13],13.2 µM (active)
COc1ccc(CC(=O)N(Cc2cc3cc(OC)ccc3nc2O)C(C)C)cc1,EC50,[18],> 50 µM (active)
O=C(CCn1cccc1)Nc1ccc(OC(F)(F)F)cc1,EC50,[18],> 50 µM (active)
C1=Nc2ccccc2CN1c1ccccc1,EC50,[18],> 50 µM (active)
COc1ccc(C2=NCC(=O)N(CC(=O)NCc3ccco3)c3sc4c(c32)CCCC4)cc1OC,CC50,[1],> 40 µM (active)
O=C(O)CN(CC(=O)O)Cc1cc2c(-c3ccccc3C(=O)O)c3cc(CN(CC(=O)O)CC(=O)O)c(=O)cc-3oc2cc1O,AC50,Cytochrome P450 3A4 [2],20 µM (inconclusive)
Cc1nnc(S)n1/N=C/c1c(O)ccc2ccccc12,IC50,[19],> 100 µM (inactive)
same,IC50,[20],2.42 µM (active)
COc1cc(/C=N/n2c(S)nnc2-c2[nH]nc3c2CCC3)cc(OC)c1O,AC50,[21],0.011 µM (active)
same,IC50,[19],> 100 µM (inactive)
same,IC50,Large T antigen,24 µM (active)
same,IC50,[20],1.81 µM (active)
